{"source": "patent US12031152B2", "about": "“Nutrient media for the production of slaughter-free meat” (Upside Foods, Inc., priority 2020, dated 2024)", "key": {"[1]": {"experiment": "ADI of trace elements and other components", "excerpt": "(§1) Several trace elements are essential to cell metabolism and growth. […] As a novel alternative to formulating trace elements directly, the present disclosure discloses the identification and testing of food-safe complexes that innately contain trace elements."}, "[2]": {"settings": "cited from earlier work; for Safe Reference Level for Human Dietary Intake: UL: Tolerable Upper Limit"}, "[3]": {"experiment": "Safety assessment framework: risk categorization of media components", "experimental": "A safety assessment was conducted on each component of a given cell culture media under the procedure outlined below. […] Further overview of the categorical framework for ensuring that culture media components are safe and suitable for their intended use in meat production are outlined below according to their category designation. A list of media components used during meat production along with worst-case exposure estimates and relevant authoritative limits or published toxicological/safety data supporting their use is presented in Table 16. • Category 1: These cell culture media components are food ingredients/additives that are GRAS or permitted by federal regulation without limitation on use. Exemplary compounds in this category include innocuous ingredients such as sugars, pH buffers, water soluble vitamins, and common antioxidants such as tocopherols. • Category 2. These cell culture media components are common dietary nutrients and are anticipated to have GRAS status for food use or be permitted by regulation for addition to food. Examples of such compounds include most of the inorganic salts and macronutrients that are present within the cell culture media. […] In some instances, consideration of established safe levels (e.g., ADI, UL) derived from a relevant authoritative body (e.g., U.S. FDA, EFSA, JECFA, FSANZ, U.S. EPA) may be leveraged to support safety. If comparisons of anticipated dietary intakes relative to an authoritative reference intake value is used, consideration of additive intakes from all dietary sources may be considered. In the absence of an authoritative reference intake value, published NOAELs from animal toxicology studies may be used to evaluate safety using standard scientific procedures for food safety evaluation. A margin of exposure (MoE) of 100-fold or greater between the NOAEL and estimated dietary intakes from food exposures is typically considered adequate to support safety. In situations where the MoE is <100-fold, additional measures for further reduction of the media component may be necessary, or further characterization of intraspecies/interspecies differences in metabolism may be necessary. These situations also require careful consideration of the regulatory status on a case-by-case basis (e.g., premarket approval as a food additive or GRAS evaluation required). • Category 3. […] For Category 3 substances a final consideration in the safety assessment process may involve hazard characterization of the potential for a substance to produce toxic biological effects outside of the endpoints measured in a sub-chronic rat toxicity study. […] Considerations for allergenicity, biological effects in humans (e.g., effects on blood pressure), and synergistic effects with other media components also may be evaluated. […]"}, "[4]": {"experiment": "Margin between estimated intake of a 65 kg adult and rat NOAEL", "settings": "65 kg adult", "experimental": "A safety assessment was conducted on each component of a given cell culture media under the procedure outlined below. […] Further overview of the categorical framework for ensuring that culture media components are safe and suitable for their intended use in meat production are outlined below according to their category designation. A list of media components used during meat production along with worst-case exposure estimates and relevant authoritative limits or published toxicological/safety data supporting their use is presented in Table 16. • Category 1: These cell culture media components are food ingredients/additives that are GRAS or permitted by federal regulation without limitation on use. Exemplary compounds in this category include innocuous ingredients such as sugars, pH buffers, water soluble vitamins, and common antioxidants such as tocopherols. • Category 2. These cell culture media components are common dietary nutrients and are anticipated to have GRAS status for food use or be permitted by regulation for addition to food. Examples of such compounds include most of the inorganic salts and macronutrients that are present within the cell culture media. […] In some instances, consideration of established safe levels (e.g., ADI, UL) derived from a relevant authoritative body (e.g., U.S. FDA, EFSA, JECFA, FSANZ, U.S. EPA) may be leveraged to support safety. If comparisons of anticipated dietary intakes relative to an authoritative reference intake value is used, consideration of additive intakes from all dietary sources may be considered. […] For Category 3 substances a final consideration in the safety assessment process may involve hazard characterization of the potential for a substance to produce toxic biological effects outside of the endpoints measured in a sub-chronic rat toxicity study. […] Considerations for allergenicity, biological effects in humans (e.g., effects on blood pressure), and synergistic effects with other media components also may be evaluated. […]"}, "[5]": {"experiment": "Maximum (worst-case) dietary exposure estimate per 100 g serving", "settings": "assumes complete transfer of media components to the finished product on a wt/wt basis", "experimental": "The average daily intake (ADI) is conventionally determined as a result of a safety factor of 100-fold below the experimentally derived No Observable Adverse Effect Limits (NOAEL) for an appropriate animal species for sub-chronic or acute exposure. […] The ADI is determined in an appropriately sensitive species, usually rodent, and it is reported as mg of substance/kg of animal body weight/24-hour period. Calculating the maximum theoretical concentration of each media compound in the final product is done by assuming 100% incorporation of the compound from the media into the product.\nA safety assessment was conducted on each component of a given cell culture media under the procedure outlined below."}, "[6]": {"tested_on": "Adherent Gallus cells", "experiment": "Cellular response to cis recombinant Gallus FGF-2 vs commercial human recombinant FGF-2", "type": "cell-based", "settings": "growth factor at 10 μg/L and 100 μg/L, five days", "procedure": "Adherent Gallus cells were thawed and seeded at a density of 5000 cells/cm^2 in a T25-flask. One medium was prepared according to standard media hydration protocols. Dry powder media was added to DI water in a clean vessel and allowed to stir until all components were dissolved. The pH and osmolality of the medium were adjusted to 7.4 and 300 mOsm/kg respectively. The medium was then filtered using a 0.22 μm PES filtration unit and stored at 4° C. until use. Prior to use, the medium was allowed to come up to room temperature. Cells were seeded in the inner wells of a 96-well cell culture plate. Wells were either seeded with one of two different FGF-2 growth factors, a recombinant Gallus FGF-2 produced as described in Example 5, or a commercially available recombinant human FGF-2, or without any growth factors. Each growth factor was seeded at two different concentrations, 10 μg/L or 100 μg/L. Test conditions were all seeded in triplicate at a density of 5000 cells/cm^2. Cells were incubated at 39° C. in 5% CO2 in a Biotek BioSpa Live Cell Analysis System (BioSpa) for five days. Cells were imaged every 12 hours using the BioSpa. Images were processed using BioTeck Gen5 Data Analysis software. Data was then exported and analyzed using Microsoft Excel and SAS JMP."}, "[7]": {"tested_on": "cells", "experiment": "Screening of cobalt compounds to replace cobalt chloride", "type": "cell-based", "settings": "replacement of cobalt chloride", "excerpt": "Cobalt is an essential cofactor nutrient for many enzymatic pathways that contribute to metabolic and cellular function. Cobalt chloride is a commonly used source of cobalt in culture media. Cobalt chloride is strictly prohibited by the FDA for use in food. In order to find a suitable replacement, many cobalt compounds were screened. Eventually, Vitamin B12 in the form of cyanocobalamin, which contains bioavailable cobalt at its chiral center, was found. […] In some embodiments the method comprises removing cobalt chloride. In some embodiments the method comprises replacing cobalt chloride with cyanocobalamin (Vit B12)."}, "[8]": {"tested_on": "cells", "settings": "FAC 0.5 mg/ml-50 mg/ml, up to 275 hours, vs cells without FAC", "excerpt": "as §1"}}, "data": [{"molecule": "O=C(O)CCCCC1CCSS1", "note": "(racemic) [DL-ALPHA-LIPOIC ACID]", "values": [{"measurement": "ADI", "setting": "[1]", "value": 5.14, "unit": "mg/kg bw-day"}]}, {"molecule": "CC(=O)Oc1c(C)c(C)c2c(c1C)CCC(C)(CCCC(C)CCCC(C)CCCC(C)C)O2", "note": "(racemic) [DL-ALPHA-TOCOPHEROL ACETATE]", "values": [{"measurement": "Safe Reference Level for Human Dietary Intake: UL", "setting": "[2]", "value": "UL = 1000 mg/d"}]}, {"molecule": "Cc1c(C)c2c(c(C)c1O)CC[C@@](C)(CCC[C@H](C)CCC[C@H](C)CCCC(C)C)O2", "note": "[D-ALPHA-TOCOPHEROL]", "values": [{"measurement": "Safe Reference Level for Human Dietary Intake: UL", "setting": "[2]", "value": "UL = 1000 mg/d"}]}, {"molecule": "N[C@@H](CCC(=O)[O-])C(=O)O.O.[Na+]", "note": "[L-GLUTAMIC ACID MONOSODIUM H20]", "values": [{"measurement": "Risk Assessment Category", "setting": "[3]", "value": 2}]}, {"molecule": "O=S(=O)([O-])[O-].[Mg+2]", "note": "[MAGNESIUM SULFATE (ANHY)]", "values": [{"measurement": "Safe Reference Level for Human Dietary Intake: UL (in words)", "setting": "[2]; NS = not specified as no evidence of toxicity from excess intake known", "value": "No UL for food"}]}, {"molecule": "NCCO", "note": "[MONOETHANOLAMINE]", "values": [{"measurement": "Intakes below NOAEL", "setting": "[4]; rat NOAEL", "value": "kg adult are 128 fold"}]}, {"molecule": "Cl.Cl.NCCCCN", "note": "[PUTRESCINE-2HCl]", "values": [{"measurement": "ADI", "setting": "[1]", "value": 0.018, "unit": "mg/kg bw-day"}]}, {"molecule": "[Cl-].[Rb+]", "note": "[RUBIDIUM CHLORIDE]", "values": [{"measurement": "ADI", "setting": "[1]", "value": 0.051, "unit": "mg/kg bw-day"}]}, {"molecule": "O.O.[Na+].[Na+].[O]=[Mo](=[O])([O-])[O-]", "note": "[SODIUM MOLYBDATE-2H2O]", "values": [{"measurement": "ADI", "setting": "[1]", "value": 1.41, "unit": "mg/kg bw-day"}]}, {"molecule": "O=P([O-])([O-])O.[Na+].[Na+]", "note": "[SODIUM PHOSPHATE DIBASIC-ANHY]", "values": [{"measurement": "Risk Assessment Category", "setting": "[3]", "value": 1}, {"measurement": "Maximum Estimated Exposure per 100 g serving", "setting": "[5]", "value": 4.3, "unit": "g"}]}, {"molecule": "O.O.O.O.O.O.O=C([O-])CCC(=O)[O-].[Na+].[Na+]", "note": "[SODIUM SUCCINATE-2Na 6H20]", "values": [{"measurement": "Intakes below NOAEL", "setting": "[4]; NOAEL from 2 year rat study", "value": "are >1000 fold below"}]}, {"molecule": "O.O.O.O.O.O.[Cl-].[Cl-].[Sr+2]", "note": "[STRONTIUM CHLORIDE HEXAHYDRATE]", "values": [{"measurement": "ADI", "setting": "[1]", "value": 1.87, "unit": "mg/kg bw-day"}]}, {"molecule": "O=C(O)CCC(=O)O", "note": "[SUCCINIC ACID]", "values": [{"measurement": "Intakes below NOAEL", "setting": "[4]; NOAEL from 2 year rat study", "value": "adult are 257-fold"}]}, {"molecule": "Cc1cn([C@H]2C[C@H](O)[C@@H](CO)O2)c(=O)[nH]c1=O", "note": "[THYMIDINE SYNTHETIC, THYMIDINE]", "values": [{"measurement": "ADI", "setting": "[1]", "value": 83.1, "unit": "mg/kg bw-day"}]}, {"molecule": "CCCCCCCC/C=C\\CCCCCCCC(=O)OCCOCC(OCCO)C1OCC(OCCO)C1OCCO", "note": "(stereo not shown) [TWEEN 80]", "values": [{"measurement": "Safe Reference Level for Human Dietary Intake: ADI", "setting": "[2]; Acceptable Daily Intake", "value": "ADI = 10 mg/kg bw/d"}]}, {"molecule": "C=C1CC[C@H](O)C/C1=C/C=C1\\CCC[C@]2(C)[C@@H]([C@H](C)/C=C/[C@H](C)C(C)C)CC[C@@H]12", "note": "[VITAMIN D2 (ERGOCALCIFEROL), ERGOCALCIFEROL]", "values": [{"measurement": "Safe Reference Level for Human Dietary Intake: UL", "setting": "[2]", "value": "UL = 100 ug/d"}]}, {"molecule": "CALCIUM D-PANTOTHENATE", "values": [{"measurement": "Risk Assessment Category", "setting": "[3]", "value": 1}]}, {"molecule": "FERRIC CITRATE", "values": [{"measurement": "Risk Assessment Category", "setting": "[3]", "value": 2}]}, {"molecule": "commercial human FGF-2: commercially available recombinant human FGF-2 [reference compound]", "values": [{"measurement": "cellular response", "setting": "[6]", "value": "equivalent activity"}, {"measurement": "cellular response", "setting": "[6]; listed as human recombinant FGF-2", "value": "equivalent response"}]}, {"molecule": "cyanocobalamin [VITAMIN B12 (CYANCOCOBALAMIN)]", "values": [{"measurement": "supply of cobalt to promote cellular function", "setting": "[7]", "value": "sufficiently supplied cobalt"}]}, {"molecule": "ferric ammonium citrate [FAC]", "values": [{"measurement": "cell viability over time", "setting": "[8]", "value": "maintain high viability over time"}]}, {"molecule": "cis Gallus FGF-2: recombinant Gallus FGF-2 produced in E. coli as described in Example 5 (protein, UniProt P48800 13-158, looked up) Fibroblast growth factor 2: PALPDDGGGGAFPPGHFKDPKRLYCKNGGFFLRINPDGRVDGVREKSDPHIKLQLQAEERGVVSIKGVSANRFLAMKEDGRLLALKCATEECFFFERLESNNYNTYRSRKYSDWYVALKRTGQYKPGPKTGPGQKAILFLPMSAKS", "values": [{"measurement": "cellular response", "setting": "[6]", "value": "equivalent activity"}, {"measurement": "cellular response", "setting": "[6]; listed as cis recombinant Gallus FGF-2", "value": "equivalent response"}]}]}
